Earlier results on one molecule are cited in patent publication US6048878A, “Substituted piperidine derivatives as selective agonists of 5-HT receptors” (Merck Sharp & Dohme Ltd., priority 1995, dated 2000).

Data set [1] deals with human 5-HT1D.sbsb.α and 5-HT1D.sbsb.β receptor subtypes. As to conditions: cf. WO-A-91/17174, Table 1.
The conditions of data set [2]: therapeutic doses.

As for `CNS(=O)(=O)Cc1ccc2[nH]cc(CCN(C)C)c2c1` [sumatriptan], in data set [1], the “discrimination between the human 5-HT1D.sbsb.α and 5-HT1D.sbsb.β receptor subtypes” value is on record as “barely discriminates”. Further, the “adverse cardiovascular events in humans” value in data set [2] is “certain adverse cardiovascular events”.
